From US20150306232A1, “HYDROGELATORS COMPRISING D-AMINO ACIDS” (BRANDEIS UNIVERSITY, priority 2012, published 2015)
Residues, ends and D or L forms follow the SMILES beside them. *: point of attachment. Naproxen = COc1ccc2cc([C@H](C)C(=O)*)ccc2c1

Tests used:
HeLa cells [1] = experiment: live cell imaging of intracellular self-assembly; type: cell-based; conditions: 500 μM
Method: We seeded 2×10^5 of HeLa cells in Glass Chamber (Thermo Scientific Nunc Lab-Tek, 2-well) with MEM medium (2 mL) that was supplemented with 10% FBS, 100 U/mL penicillin and 100 mg mL 21 streptomycin for 4 h to allow the cell attachment. In order to perform the PTP1B Inhibition assay, we then replaced the culture medium in both wells and re-incubated the cells for 1 h, for which one-half of the wells was incubated in the medium containing 25 μM CinnGEL 2Me (novel inhibitor of PTP1B, prepared by reconstitution in DMSO), other well as a control was in the culture medium plus the same volume of DMSO. Ishino, Y.; et al. Mol. Vis. 2008, 14, 61. After that, we replaced the medium and washed the HeLa cells with PBS buffer for three times. Then we fixed the cell containing glass chamber on the confocal microscope stage, and replaced the PBS buffer with 1 mL solution of our fluorescent hydrogelators (500 μM, dissolved in PBS buffer) for each well. The sample we added into the PTP1B inhibition well also contained 25 μM of CinnGEL 2Me. Thereafter fluorescent images were captured immediately in the xyt mode with a delay of 11.64 s between frames.

[2] = enzymatic hydrogelation with ALP; type: physicochemical; conditions: 1.0 U/mL ALP, pH 7.6, 0.4-1.0 wt %
Method: To investigate the enzymatic hydrogelation of the D-peptidic precursor 11b, we prepared a series of hydrogels formed by using ALP to treat 11b at different concentrations. After dissolving 1.0, 2.0, 3.0, 4.0, and 5.0 mg of 11b in 0.5 mL of water (pH 7.6), respectively, we obtained clear solutions of 11b with different concentrations. The treatment of the solutions of 11b with ALP (1.0 U/mL) afforded the molecules of hydrogelator 12b, which are less soluble than 11b and thus self-assemble in water to form hydrogels when the concentrations of 12b are sufficient.
All the compounds were dissolved in de-ionized water. We then adjusted pH of the solutions carefully adding 1 M of NaOH and 1 M of HCl and measured the values by pH paper (pH 6.0-8.0). After prepared clear weakly basic solutions (pH 7.6 or 7.4), we then formed the hydrogels by adding enzymes (alkaline phosphatase).

ALP = experiment: enzymatic dephosphorylation followed by 31P NMR; type: biochemical; conditions: 1.0 wt %, 0.02 U/mL ALP, pH 7.6, 25° C.
Method: To evaluate the rate of enzymatic hydrogelation process, we used ^31P NMR and rheology to study the transformation of the precursors 11a and 11b upon the treatment of ALP (FIG. 26). We first dissolved 10 mg of 11a and 11b into 1.0 mL of water at pH 7.6, respectively, to afford clear solutions with concentrations of 1.0 wt %. Once adding 0.02 U/mL of alkaline phosphates, we immediately monitored the solutions of 11a and 11b by ^31P NMR and oscillatory rheology at 25° C. The ^31P NMR spectra at 3 min, 1 h, 2 h, 4 h, 6 h, 8 h, 10 h, 12 h, 14 h, 18 h, 24 h, and 48 h indicate that the phosphate groups on the L-tyrosine of 11a and D-tyrosine 11b (δ=−2.7) become free phosphates (δ=0.0) at almost same rate, and dephosphorylation finishes after 48 hours. […] FIGS. 26C and 26D display the time dependent rheology studies of 11a and 11b. At the beginning, values of G″ are higher than the values of G′ for the solutions of 11a and 11b, indicating both of them are fluids. However, as 11a and 11b slowly turn into hydrogelators 12a and 12b by enzymatic dephosphorylation, the solutions start to form solid-like hydrogels with values of G′ become higher than those of G″. The gelation points for 12a and 12b, at where G′s intersect with G″s, are both achieved around 5 hours after the addition of enzyme. […]

[3] = target: T1, COX-2 (human recombinant) enzyme (Homo sapiens, UniProt P35354); experiment: COX Fluorescent Inhibitor Screening Assay, COX-2; type: biochemical
T1 construct: purchased Cayman Chemical 700100
T1 sequence (P35354 18-604): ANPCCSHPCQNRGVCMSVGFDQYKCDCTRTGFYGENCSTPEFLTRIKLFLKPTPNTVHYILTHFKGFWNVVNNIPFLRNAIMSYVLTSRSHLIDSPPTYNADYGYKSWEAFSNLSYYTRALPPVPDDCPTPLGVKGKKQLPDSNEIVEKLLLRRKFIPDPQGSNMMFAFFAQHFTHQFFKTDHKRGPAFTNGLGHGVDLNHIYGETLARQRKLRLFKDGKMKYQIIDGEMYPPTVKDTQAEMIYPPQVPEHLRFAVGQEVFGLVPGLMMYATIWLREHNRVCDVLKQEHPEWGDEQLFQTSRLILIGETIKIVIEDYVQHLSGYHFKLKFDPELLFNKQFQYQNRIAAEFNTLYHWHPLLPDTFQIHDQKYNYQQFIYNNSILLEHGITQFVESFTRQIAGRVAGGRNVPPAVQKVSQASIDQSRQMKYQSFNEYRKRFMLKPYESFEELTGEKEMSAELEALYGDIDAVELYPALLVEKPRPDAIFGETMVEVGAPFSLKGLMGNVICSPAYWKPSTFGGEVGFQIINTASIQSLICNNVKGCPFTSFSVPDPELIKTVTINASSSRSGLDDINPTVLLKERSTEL
Method: (§1) To study the drug efficacies of NSAID containing hydrogelators, here we used ‘COX Fluorescent Inhibitor Screening Assay Kit’ (700100; Cayman Chemical) to do in vitro inhibition assays for Npx and Npx containing hydrogelors 1, 2, 3, 4, 5, and 6. Each compound was tested by COX-1 (ovine) enzyme and COX-2 (human recombinant) enzyme separately in 96 well black assay plates. By utilizing the peroxidase component of COXs, we monitored the reaction between PGG2 and ADHP (10-acetyl-3,7-dihydroxyphenoxazine), which produced highly fluorescent compound resorufin. This resorufin can be easily analyzed by multimode detector with an excitation wavelength of 530-540 nm and an emission wavelength of 585-595 nm. All the compounds are assayed in triplicate. After the combination of 10 μl of inhibitors, 10 μl of Heme solution, 10 μL of fluorometric substrate, 10 μl of enzyme (either COX-1 or COX-2), and 150 μl of assay buffer, we quickly add 10 μl of arachidonic acid solution to initiate the reaction. Then we read the plate exactly after two minutes incubation at room temperature. In this experiment, we also measure the blank data without enzyme and inhibitors, and the control data without inhibitors. The IC50 values of these hydrogelators were read from their activity curves (FIG. 18), which were measured with 5 different concentrations of these hydrogelators (dissolved in DMSO).

COX-1 (ovine) enzyme = target: T2, COX-1 (ovine) enzyme (Ovis aries, UniProt P05979); experiment: COX Fluorescent Inhibitor Screening Assay, COX-1; type: biochemical; conditions: read-out: IC50 for inhibiting COX-1 enzyme
T2 construct: purchased Cayman Chemical 700100
T2 sequence (P05979 25-600): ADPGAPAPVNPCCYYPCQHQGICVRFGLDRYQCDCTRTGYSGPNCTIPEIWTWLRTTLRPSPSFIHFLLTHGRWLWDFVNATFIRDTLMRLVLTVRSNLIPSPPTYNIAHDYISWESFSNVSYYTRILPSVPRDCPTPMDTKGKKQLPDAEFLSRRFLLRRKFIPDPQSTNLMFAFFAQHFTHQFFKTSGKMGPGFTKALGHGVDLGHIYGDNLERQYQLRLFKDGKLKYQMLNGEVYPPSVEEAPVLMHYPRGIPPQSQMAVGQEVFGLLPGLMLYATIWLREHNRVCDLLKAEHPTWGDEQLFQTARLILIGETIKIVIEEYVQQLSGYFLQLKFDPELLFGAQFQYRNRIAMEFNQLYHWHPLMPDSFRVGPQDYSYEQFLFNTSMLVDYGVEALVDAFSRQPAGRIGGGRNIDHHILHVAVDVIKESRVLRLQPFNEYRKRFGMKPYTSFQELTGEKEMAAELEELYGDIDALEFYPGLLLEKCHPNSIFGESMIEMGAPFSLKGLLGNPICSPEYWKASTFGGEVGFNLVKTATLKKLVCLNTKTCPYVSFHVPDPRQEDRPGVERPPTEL
Method: as §1

[4] = toxicity and relative weight of treated mice; type: in vivo, Balb/c mice; conditions: single injection of 40 mg/kg, formulated with Cremophor EL, 40 mg/kg
HeLa cells [5] = experiment: cells; type: cell-based; conditions: Homo sapiens, HeLa; 72 hours at 37° C., MTT; read-out: IC50, HeLa cell viability
Method: We seeded […] (cells/well) of health HeLa cells into 96-well plate with 100 μL of MEM medium supplemented with 10% fetal bovine serum (FBS), 100 U/mL penicillin and 100 mg mL21 streptomycin. The incubation at 37° C. and 5% CO2 for 12 hours allowed HeLa cells to attach the bottom of 96-well plate. Then we replaced the medium by another 100 μL of growth medium that contained serial diluents of our compounds (0.5% DMSO) and then incubated the cells at 37° C. and 5% CO2 for additional 72 hours. During the measurement of proliferation for HeLa cells, which were assayed into three days, we added 10 μL of (3-(4,5-Dimethylthiazol-2-yl)-2,5-diphenyltetrazolium bromide (MTT, 0.5 mg/mL) into the assigned wells in their corresponding day every 24 hours, which was followed by adding 100 μL of 0.1% sodium dodecyl sulfate (SDS) 4 hours later. Then we collected the assay results after another 24 hours incubation. Since the mitochondrial reductase in living cells reduced MTT to purple fomazan, the absorbance at 595 nm of the whole solution was finally measured by DTX 880 Multimode Detector. With MEM medium as blank and untreated HeLa cells as control, we measure each concentration of these compounds in triplicate. The IC50 values of our hydrogelators were read from their activity curves (with the measurement of 8 different concentrations) in day 3.

4T1-luciferase cells = experiment: in vivo evaluation of antitumor activity; parameters: species or system Balb/c mice; conditions: intravenous 4×10 mg/kg every other day from day 0
Method: After inoculating female Balb/c mice with 2×10^5 of 4T1-luciferase cells in the mammary fat pad, we allow tumors grow until their sizes reach about 500 mm^3, and randomly divide them into different treatment groups: (1) intravenous injections of PBS vehicle control; (2) intravenous injection of 4×10 mg/kg Taxol® every other day from day 0 for indicated times; (3) a single intratumoral injection of 10 mg/kg Taxol containing hydrogels in 40 μL volume. With the treatments of 16 (Taxol; paclitaxel), 20a, 20b, or PBS buffer (control) for 14 days, we monitor the relative tumor sizes (calculated by the formula: tumor volume=length×width×(Length+Width)/2) and relative weights of mice every two days. […] Therefore, we have to divide 40 mg/kg of 16 into four injections with each injection of 10 mg/kg. […] This promising result warrants further investigation of the D-peptidic hydrogels of Taxol on animal models.
Female Balb/c mice were incubated with 2×10^5 4 T1-luciferase cells in the mammary fat pad. Tumor growth was monitored every other day and the tumor volume was calculated by the formula: length×width×(Length+Width)/2. Once tumors size reached around 500 mm^3, we randomly divided mice into different treatment groups. […] Mice weight was monitored after receiving treatment and presented as relative weight (%).

COX-2 = COX-2 (Homo sapiens, UniProt P35354); conditions: read-out: reported IC50 of naproxen to COX-2; literature; cited from earlier work

## 2-(Naphthalen-2-yl)acetyl-(D)-Phe-(D)-Phe-(D)-Lys(NBD)-(D)-Tyr phosphate [14b]
HeLa cells [1]; with 25 μM CinnGEL 2Me (PTP1B inhibitor)
  time until fluorescence emerges: 5 min
HeLa cells [1]; without PTP1B inhibitor
  time until cells exhibit strong fluorescence: 2 min

## 2-(Naphthalen-2-yl)acetyl-(D)-Phe-(D)-Phe-(D)-Lys-(D)-Tyr phosphate [11b]
[2]
  time to form hydrogel after addition of ALP: ≤ 24 h
ALP
  time at which dephosphorylation finishes: 48 h

## 2-(Naphthalen-2-yl)acetyl-(L)-Phe-(L)-Phe-(L)-Lys-(L)-Tyr phosphate [11a, reference compound]
ALP
  time at which dephosphorylation finishes: 48 h

## COc1ccc2cc([C@H](C)C(=O)N[C@@H](Cc3ccccc3)C(=O)N[C@@H](Cc3ccccc3)C(=O)N[C@@H](CCCCN)C(=O)N[C@@H](Cc3ccc(O)cc3)C(=O)O)ccc2c1 [L-4, Naproxen-L-Phe-L-Phe-L-Lys-L-Tyr, reference compound] (Naproxen-FFKY-OH)
[3]
  selectivity S for COX-2 (IC50 of COX-1/IC50 of COX-2): about 3
COX-1 (ovine) enzyme
  IC50: 115 µM

## CC(=O)O[C@H]1C(=O)[C@@]2(C)[C@H]([C@H](OC(=O)c3ccccc3)[C@]3(O)C[C@H](OC(=O)[C@H](O)[C@@H](NC(=O)c4ccccc4)c4ccccc4)C(C)=C1C3(C)C)[C@]1(OC(C)=O)CO[C@@H]1C[C@@H]2O [compound 16, paclitaxel]
[4]; listed as Taxol
  lethality: Mice died immediately
[4]; listed as Taxol®
  lethality: may cause the death of mouse immediately
HeLa cells [5]
  IC50: 0.0458 µM
4T1-luciferase cells
  relative tumor size vs control: smaller than those of the control group after day 8

## COc1ccc2cc([C@H](C)C(=O)O)ccc2c1 [naproxen]
COX-2
  IC50: 2 to 28.4 µM
